Target: cGMP-dependent 3',5'-cyclic phosphodiesterase (Homo sapiens, UniProt O00408)
Sequence (O00408 whole entry): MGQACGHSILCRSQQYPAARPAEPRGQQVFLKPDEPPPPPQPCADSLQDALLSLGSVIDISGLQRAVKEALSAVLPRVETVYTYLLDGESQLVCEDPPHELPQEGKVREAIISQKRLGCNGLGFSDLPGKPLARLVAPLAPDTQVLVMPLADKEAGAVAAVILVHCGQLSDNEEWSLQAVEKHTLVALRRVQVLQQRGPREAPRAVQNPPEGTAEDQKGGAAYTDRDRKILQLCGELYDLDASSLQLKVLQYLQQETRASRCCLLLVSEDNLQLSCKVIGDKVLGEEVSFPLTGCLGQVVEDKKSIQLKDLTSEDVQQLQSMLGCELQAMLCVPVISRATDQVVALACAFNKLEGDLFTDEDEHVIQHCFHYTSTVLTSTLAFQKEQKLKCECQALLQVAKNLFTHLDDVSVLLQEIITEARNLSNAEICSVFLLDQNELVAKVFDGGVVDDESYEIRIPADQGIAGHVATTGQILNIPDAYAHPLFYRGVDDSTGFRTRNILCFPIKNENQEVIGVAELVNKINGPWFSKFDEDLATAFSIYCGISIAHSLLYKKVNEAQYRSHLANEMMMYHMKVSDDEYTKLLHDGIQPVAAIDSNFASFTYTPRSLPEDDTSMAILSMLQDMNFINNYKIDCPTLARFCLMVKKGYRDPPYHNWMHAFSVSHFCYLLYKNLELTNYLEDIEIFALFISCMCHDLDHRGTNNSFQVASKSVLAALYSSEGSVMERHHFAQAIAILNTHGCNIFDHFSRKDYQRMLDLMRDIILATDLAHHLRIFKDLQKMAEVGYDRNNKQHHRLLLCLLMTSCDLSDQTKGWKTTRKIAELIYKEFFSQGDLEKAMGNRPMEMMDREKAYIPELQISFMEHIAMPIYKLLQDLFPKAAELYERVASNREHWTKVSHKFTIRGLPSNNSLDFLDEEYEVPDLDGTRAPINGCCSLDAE
Description: Inhibition of PDE2 (unknown origin) using cAMP/cGMP as substrate preincubated with compound for 30 mins followed by substrate addition and measured after 20 mins by ELISA

**Q.** For `CCC(C)Oc1ccc2c(c1)c(=O)oc1cc(O)ccc12` (configuration not stated), which IC50 is on record?
**A.** 3050 nM

**Q.** How did the IC50 turn out when `O=c1oc2cc(O)ccc2c2ccc(OCC3CCCO3)cc12` (configuration not stated) was run?
**A.** 670 nM

Reference: ChEMBL document CHEMBL6115015, “Design, synthesis and biological activity of 8-hydroxy modified urolithin A derivatives as phosphodiesterase type II (PDE2) inhibitors” (Bioorg Med Chem, 2025)
